For six compounds, TGI results are on record in PubChem BioAssay (NCI).

Some test systems named below: HOP-62 NSCLC; SW-620 colon; T-47D breast; MDA-MB-435; HL-60(TB) leukemia; HT29 colon; NCI-H460 lung; HCT-15 colon; NCI-H226 lung; HOP-92 NSCLC; MDA-N; K-562 leukemia; UACC-257 melanoma; COLO 205 colon; SNB-19 CNS; IGROV1 ovarian; MOLT-4 leukemia; SN12C renal; A549 NSCLC; UO-31 renal.
Holding throughout (experiment): NCI-60 cell line screen, 48 h

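Following 48 hours of exposure in 96-well plates, responses at five concentrations were used to interpolate endpoints linearly. TGI marks complete inhibition of growth.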

Consider `C=CCN(c1cc(OC)c2[nH]c(C(=O)OCC)c(C)c2c1[N+](=O)[O-])S(C)(=O)=O`, for which the TGI is more than 100 µM in the assay on HOP-62 NSCLC; more than 100 µM in the assay with SW-620 colon; 48.6 µM with T-47D breast; 64.7 µM in the assay on MDA-MB-435; 46.5 µM with HL-60(TB) leukemia; 35.5 µM with HT29 colon. The TGI in the assay on NCI-H460 lung is more than 100 µM; with HCT-15 colon, more than 100 µM; with NCI-H226 lung, 25.3 µM; in the assay on HOP-92 NSCLC it was 72.4 µM; with MDA-N, 52.7 µM; with K-562 leukemia it was 31.4 µM. For the same compound, the TGI in the assay on UACC-257 melanoma is more than 100 µM; in the assay on COLO 205 colon it was 29.1 µM; in the assay on SNB-19 CNS, more than 100 µM; in the assay with IGROV1 ovarian, more than 100 µM; with MOLT-4 leukemia it was 28.9 µM; in the assay on SN12C renal, 56.1 µM. Besides, the TGI with A549 NSCLC was more than 100 µM; in the assay with UO-31 renal, 74.8 µM.
With `N#CCN(CC#N)C1CC=CCC1N(CC#N)CC#N` (stereo not given), the TGI in the assay on HOP-62 NSCLC, in the assay on SW-620 colon, in the assay on T-47D breast, in the assay with MDA-MB-435, in the assay on HL-60(TB) leukemia and in the assay with HT29 colon was more than 100 µM throughout. For the same compound, the TGI with NCI-H460 lung, in the assay with HCT-15 colon, in the assay on NCI-H226 lung, in the assay on HOP-92 NSCLC, in the assay on MDA-N and in the assay with K-562 leukemia was more than 100 µM throughout. Besides, the TGI with UACC-257 melanoma, in the assay on COLO 205 colon, in the assay with SNB-19 CNS, in the assay on IGROV1 ovarian, in the assay with MOLT-4 leukemia and in the assay with SN12C renal was more than 100 µM throughout. For the same compound, the TGI in the assay on A549 NSCLC and in the assay on UO-31 renal was more than 100 µM throughout.
Consider `Nc1ccc(-c2nc3ccccc3s2)cc1C#Cc1ccccc1`, for which the TGI was 28.2 µM with HOP-62 NSCLC; 34.7 µM in the assay on SW-620 colon; more than 100 µM with T-47D breast; 36 µM in the assay on MDA-MB-435; 62.1 µM in the assay with HL-60(TB) leukemia; 35.4 µM in the assay with HT29 colon. The TGI in the assay on NCI-H460 lung is 35.1 µM; in the assay on HCT-15 colon, 38.2 µM; in the assay on NCI-H226 lung, 49.2 µM; in the assay with HOP-92 NSCLC, 52.8 µM; with MDA-N it was 35.8 µM; with K-562 leukemia, 84.4 µM. Besides, the TGI in the assay on UACC-257 melanoma was 31.3 µM; with COLO 205 colon, 31 µM; with SNB-19 CNS, 72.1 µM; in the assay on IGROV1 ovarian, 28.4 µM; in the assay on MOLT-4 leukemia, more than 100 µM; with SN12C renal, 37.1 µM. The TGI in the assay on A549 NSCLC came to 49 µM; in the assay with UO-31 renal, 36.7 µM.
Turning to `CCN(CC)CCCNc1[nH]ncc2c(C)c3nc4ccc(OC)cc4c3cc12`, the TGI in the assay on HOP-62 NSCLC came to 4.16 µM; in the assay with SW-620 colon, 1.58 µM; in the assay on T-47D breast, 3.36 µM; with MDA-MB-435, 2.46 µM; in the assay with HL-60(TB) leukemia, 2.9 µM; with HT29 colon, 6.04 µM. The TGI amounted to 4.66 µM in the assay on NCI-H460 lung; 36.3 µM with HCT-15 colon; 1.7 µM in the assay on NCI-H226 lung; 3.14 µM in the assay with HOP-92 NSCLC; 1.93 µM with MDA-N; 1.64 µM with K-562 leukemia. Also, the TGI was found to be 7.18 µM in the assay with UACC-257 melanoma; 2.89 µM with COLO 205 colon; 1.21 µM in the assay on SNB-19 CNS; 2.91 µM with IGROV1 ovarian; 0.0904 µM with MOLT-4 leukemia; 1.77 µM in the assay with SN12C renal. The TGI was determined as 2.73 µM with A549 NSCLC and 15 µM with UO-31 renal.
`C=CCOc1ccccc1C1(O)c2ccccc2C2=NCCCN21` (stereo not given): the TGI is 54.1 µM in the assay on HOP-62 NSCLC; more than 100 µM with SW-620 colon; more than 100 µM in the assay with T-47D breast; more than 100 µM in the assay with MDA-MB-435; 96.8 µM in the assay on HL-60(TB) leukemia; 36.2 µM in the assay on HT29 colon. For the same compound, the TGI in the assay on NCI-H460 lung was more than 100 µM; in the assay with HCT-15 colon, more than 100 µM; in the assay with NCI-H226 lung it was 76.4 µM; in the assay with HOP-92 NSCLC, more than 100 µM; in the assay on MDA-N, more than 100 µM; with K-562 leukemia, more than 100 µM. Further, the TGI in the assay with UACC-257 melanoma is more than 100 µM; in the assay on COLO 205 colon it was 78.9 µM; with SNB-19 CNS it was 79.5 µM; with IGROV1 ovarian, 44.7 µM; in the assay on MOLT-4 leukemia it was more than 100 µM; in the assay on SN12C renal, more than 100 µM. Besides, the TGI in the assay with A549 NSCLC and with UO-31 renal was more than 100 µM each time.
On to `CCn1c(=O)c2nc(SC)sc2n(-c2ccccc2)c1=O`, for which the TGI in the assay with HOP-62 NSCLC, in the assay with SW-620 colon, in the assay with T-47D breast, with MDA-MB-435, in the assay with HL-60(TB) leukemia and in the assay on HT29 colon was more than 100 µM throughout. In addition, the TGI in the assay with NCI-H460 lung, in the assay with HCT-15 colon, with NCI-H226 lung, in the assay on HOP-92 NSCLC, in the assay on MDA-N and in the assay with K-562 leukemia was more than 100 µM in each case. Also, the TGI with UACC-257 melanoma, in the assay with COLO 205 colon, with SNB-19 CNS, in the assay on IGROV1 ovarian, with MOLT-4 leukemia and with SN12C renal was more than 100 µM in each case. Besides, the TGI is more than 100 µM in the assay with A549 NSCLC and 56.4 µM in the assay on UO-31 renal.
